Measurements reported in US20210205271A1 (The Johns Hopkins University, priority 2018, published 2021).
Like-named read-outs stand apart in the source and are kept apart here.

How the values were obtained:
[1] = rats; cited from earlier work
[2] = mouse, in vivo, iv, 1.5 mg/kg
Method: (§1) All pharmacokinetic studies in mice were conducted according to protocols approved by the Animal Care and Use Committee at Johns Hopkins University. Male CD-1 mice between 25 and 30 g were obtained from Harlan, and maintained on a 12-h light-dark cycle with ad libitum access to food and water. […] The mice were sacrificed at specified time points post drug administration. For collection of plasma and brain tissue, animals were euthanized with CO2, and blood samples were collected in heparinized microtubes by cardiac puncture. Tissues were dissected and immediately flash frozen (−80° C.). Blood samples were spun at 2,000×g for 15 min, plasma was removed and stored at −80° C. until LC/MS analysis. Prior to extraction, frozen samples were thawed on ice. The calibration curves were developed using plasma and brain from naïve animals as a matrix. Plasma samples (50 μL), were processed using a single liquid extraction method by addition of 3004 of acetonitrile as with internal standard (losartan: 0.5 μM), followed by vortex mixing for 30 sec and then centrifugation at 10,000×g for 10 min at 4° C. For brain tissue, homogenized samples were vortex mixed and centrifuged as above. A 104 aliquot of supernatant was diluted with 35 µL of acetonitrile and mixed with 50 μL water containing 0.5 μM losartan as internal standard. Extracts were centrifuged at 10,000×g for 10 min at 4° C. Supernatants were transferred to 2504 polypropylene autosampler vials sealed with a Teflon cap. A volume of 34 was injected onto the ultra-performance liquid chromatography (UPLC) instrument for quantitative analysis by LC-MS/MS.

[3] = mouse, in vivo, po, 30 mg/kg
Method: Brain concentrations of MBZ were also measured in tandem.
as §1

[4] = MBZ plasma exposure in male beagle dogs after oral administration; format: in vivo, dog; details: PO […] MBZ equivalent
[5] = dog, in vivo, iv, 0.3 mg/kg
Method: Using a co-solvent system comprising of 1% DMSO and 10% CremophorEL formulation, however, MBZ was successfully administered via IV at a dose of 1.5 mg/kg in mice (FIG. 3A) and a dose of 0.3 mg/kg in dog (FIG. 3B).

Row | AUC0-t [2] [µM·h] | Cmax [2] [µM] | Tmax [2] [min] | Vd [2] [L/kg] | time of Cmax post-dose [2] [min] | AUC0-t (MBZ, brain) [3] [nmol·h/g] | AUC0-t (MBZ, plasma) [3] [µM·h] | % F (oral bioavailability of MBZ) [4] [%] | Tmax (MBZ, plasma) [4] [h] | AUC0-t [5] [µM·h] | Vd [5] [L/kg] | Compound | fold improvement in plasma exposure versus equimolar oral MBZ [1] [fold]
1 | – | – | – | – | – | – | – | – | – | – | – | COC(=O)NC(=S)Nc1cc(C(=O)c2ccccc2)ccc1N [4-amino-3-(3′-methoxycarbonyl-2′-thioureido)benzophonone] | 2
2 | 2.7 | 5.3 | 4.98 | 1.4 | 5 | 13.1 ± 4.2 | 12.9 | 11 | 2 | 0.9 | 1.3 | Mebendazole [MBZ-C] | –
